# Data: the supplement of paper PMC10307832
# Tests used:
# Assay in all cases: relative viability (nuclei count vs DMSO), 5 days (fraction); higher = more cells survive
# 201T = system: 201T
# In short: (§1)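 The day after seeding in 1536-well plates, lung cancer cell lines were treated by pin tool with a single drug, or with a fixed anchor-drug dose together with five library-drug doses (not always all listed) in √10 steps. After 5 days, a combined fix-and-stain solution (final 0.05% Triton X-100, 1% formaldehyde, 1 ug/ml Hoechst) was added. Nuclei counted on 4× images gave relative viability as treated counts over vehicle counts, reported as the median of duplicate plates.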
# COR-L23 = system: COR-L23
# In short: as §1
# H3255 = system: H3255
# In short: as §1
# HARA = system: HARA
# In short: as §1
# LU99A = system: LU99A
# In short: as §1
# NCI-H1650 = system: NCI-H1650
# In short: as §1
# NCI-H1651 = system: NCI-H1651
# In short: as §1
# NCI-H1755 = system: NCI-H1755
# In short: as §1
# NCI-H1793 = system: NCI-H1793
# In short: as §1
# NCI-H2085 = system: NCI-H2085
# In short: as §1
# NCI-H2087 = system: NCI-H2087
# In short: as §1
# NCI-H23 = system: NCI-H23
# In short: as §1
# NCI-H3122 = system: NCI-H3122
# In short: as §1
# NCI-H322M = system: NCI-H322M
# In short: as §1
# NCI-H358 = system: NCI-H358
# In short: as §1
# NCI-H460 = system: NCI-H460
# In short: as §1
# NCI-H522 = system: NCI-H522
# In short: as §1
# NCI-H596 = system: NCI-H596
# In short: as §1
# NCI-H650 = system: NCI-H650
# In short: as §1
# PC-3 [JPC-3] = system: PC-3 [JPC-3]
# In short: as §1
# SK-LU-1 = system: SK-LU-1
# In short: as §1
smiles,measurement,setting,value
Cc1csc(=NC2CCCCC2)n1/N=C/c1ccc(O)c(O)c1O [MIM1] + CCNC(=O)c1noc(-c2cc(C(C)C)c(O)cc2O)c1-c1ccc(CN2CCOCC2)cc1 [Luminespib] (partner 0.01 µM),relative viability,201T; first compound 0.2 µM,1.03
same,relative viability,201T; first compound 0.6325 µM,1.05
same,relative viability,201T; first compound 2 µM,1.03
same,relative viability,201T; first compound 6.325 µM,0.548
same,relative viability,201T; first compound 20 µM,0.368
same,relative viability,COR-L23; first compound 0.2 µM,0.555
same,relative viability,COR-L23; first compound 0.6325 µM,0.75
same,relative viability,COR-L23; first compound 2 µM,0.7
same,relative viability,COR-L23; first compound 6.325 µM,0.469
same,relative viability,COR-L23; first compound 20 µM,0.321
same,relative viability,H3255; first compound 0.2 µM,0.865
same,relative viability,H3255; first compound 0.6325 µM,0.85
same,relative viability,H3255; first compound 2 µM,0.798
same,relative viability,H3255; first compound 6.325 µM,0.769
same,relative viability,H3255; first compound 20 µM,0.34
same,relative viability,HARA; first compound 0.2 µM,0.866
same,relative viability,HARA; first compound 2 µM,0.776
same,relative viability,HARA; first compound 6.325 µM,0.251
same,relative viability,HARA; first compound 20 µM,0.0856
same,relative viability,LU99A; first compound 0.2 µM,0.227
same,relative viability,LU99A; first compound 0.6325 µM,0.317
same,relative viability,LU99A; first compound 2 µM,0.26
same,relative viability,LU99A; first compound 6.325 µM,0.308
same,relative viability,LU99A; first compound 20 µM,0.219
same,relative viability,NCI-H1650; first compound 0.2 µM,0.223
same,relative viability,NCI-H1650; first compound 0.6325 µM,0.189
same,relative viability,NCI-H1650; first compound 2 µM,0.221
same,relative viability,NCI-H1650; first compound 6.325 µM,0.19
same,relative viability,NCI-H1650; first compound 20 µM,0.22
same,relative viability,NCI-H1651; first compound 0.2 µM,0.876
same,relative viability,NCI-H1651; first compound 0.6325 µM,0.785
same,relative viability,NCI-H1651; first compound 2 µM,0.617
same,relative viability,NCI-H1651; first compound 6.325 µM,0.67
same,relative viability,NCI-H1651; first compound 20 µM,0.495
same,relative viability,NCI-H1755; first compound 0.2 µM,0.455
same,relative viability,NCI-H1755; first compound 0.6325 µM,0.51
same,relative viability,NCI-H1755; first compound 2 µM,0.703
same,relative viability,NCI-H1755; first compound 6.325 µM,0.459
same,relative viability,NCI-H1755; first compound 20 µM,0.414
same,relative viability,NCI-H1793; first compound 0.2 µM,0.187
same,relative viability,NCI-H1793; first compound 2 µM,0.188
same,relative viability,NCI-H1793; first compound 6.325 µM,0.162
same,relative viability,NCI-H1793; first compound 20 µM,0.138
same,relative viability,NCI-H2085; first compound 0.2 µM,0.42
same,relative viability,NCI-H2085; first compound 0.6325 µM,0.466
same,relative viability,NCI-H2085; first compound 2 µM,0.455
same,relative viability,NCI-H2085; first compound 6.325 µM,0.442
same,relative viability,NCI-H2085; first compound 20 µM,0.404
same,relative viability,NCI-H2087; first compound 0.2 µM,0.145
same,relative viability,NCI-H2087; first compound 0.6325 µM,0.183
same,relative viability,NCI-H2087; first compound 2 µM,0.199
same,relative viability,NCI-H2087; first compound 6.325 µM,0.176
same,relative viability,NCI-H2087; first compound 20 µM,0.132
same,relative viability,NCI-H23; first compound 0.2 µM,0.262
same,relative viability,NCI-H23; first compound 0.6325 µM,0.208
same,relative viability,NCI-H23; first compound 6.325 µM,0.198
same,relative viability,NCI-H23; first compound 20 µM,0.211
same,relative viability,NCI-H3122; first compound 0.2 µM,0.0956
same,relative viability,NCI-H3122; first compound 0.6325 µM,0.0902
same,relative viability,NCI-H3122; first compound 2 µM,0.103
same,relative viability,NCI-H3122; first compound 6.325 µM,0.106
same,relative viability,NCI-H3122; first compound 20 µM,0.0938
same,relative viability,NCI-H322M; first compound 0.2 µM,0.837
same,relative viability,NCI-H322M; first compound 0.6325 µM,0.771
same,relative viability,NCI-H322M; first compound 2 µM,0.832
same,relative viability,NCI-H322M; first compound 6.325 µM,0.729
same,relative viability,NCI-H322M; first compound 20 µM,0.31
same,relative viability,NCI-H358; first compound 0.2 µM,0.472
same,relative viability,NCI-H358; first compound 0.6325 µM,0.292
same,relative viability,NCI-H358; first compound 2 µM,0.303
same,relative viability,NCI-H358; first compound 6.325 µM,0.204
same,relative viability,NCI-H358; first compound 20 µM,0.211
same,relative viability,NCI-H460; first compound 0.2 µM,0.0272
same,relative viability,NCI-H460; first compound 0.6325 µM,0.0322
same,relative viability,NCI-H460; first compound 2 µM,0.0432
same,relative viability,NCI-H460; first compound 6.325 µM,0.0284
same,relative viability,NCI-H460; first compound 20 µM,0.0278
same,relative viability,NCI-H522; first compound 0.2 µM,1.23
same,relative viability,NCI-H522; first compound 0.6325 µM,1.05
same,relative viability,NCI-H522; first compound 2 µM,1.03
same,relative viability,NCI-H522; first compound 6.325 µM,1.19
same,relative viability,NCI-H522; first compound 20 µM,0.494
same,relative viability,NCI-H596; first compound 0.2 µM,1.03
same,relative viability,NCI-H596; first compound 0.6325 µM,0.879
same,relative viability,NCI-H596; first compound 2 µM,0.939
same,relative viability,NCI-H596; first compound 6.325 µM,0.918
same,relative viability,NCI-H596; first compound 20 µM,0.486
same,relative viability,NCI-H650; first compound 0.2 µM,0.822
same,relative viability,NCI-H650; first compound 0.6325 µM,0.619
same,relative viability,NCI-H650; first compound 2 µM,0.85
same,relative viability,NCI-H650; first compound 6.325 µM,0.704
same,relative viability,NCI-H650; first compound 20 µM,0.288
same,relative viability,PC-3 [JPC-3]; first compound 0.2 µM,0.508
same,relative viability,PC-3 [JPC-3]; first compound 0.6325 µM,0.661
same,relative viability,PC-3 [JPC-3]; first compound 2 µM,0.674
same,relative viability,PC-3 [JPC-3]; first compound 6.325 µM,0.65
same,relative viability,PC-3 [JPC-3]; first compound 20 µM,0.594
same,relative viability,SK-LU-1; first compound 0.2 µM,0.178
same,relative viability,SK-LU-1; first compound 0.6325 µM,0.21
same,relative viability,SK-LU-1; first compound 2 µM,0.181
same,relative viability,SK-LU-1; first compound 6.325 µM,0.196
same,relative viability,SK-LU-1; first compound 20 µM,0.227
